{"source": "patent US20100209934A1", "about": "“METHOD OF IDENTIFYING AGENTS WHICH MODULATE THE ACTIVITY OF CALCIUM-ACTIVATED CHLORIDE CHANNEL” (SNU R&DB FOUNDATION, priority 2007, published 2010)", "key": {"[1]": {"tested_on": "mANO1", "experiment": "FLIPR membrane potential (voltage-sensing fluorescence) assay in mANO1-stably expressing HEK cells", "assay_type": "cell-based, mouse", "settings": "for membrane potential change detected by fluorescent intensity: 100 μM ATP or 10 μM A23187, mANO1-stably expressing HEK cells, not seen in control HEK cells", "protocol": "The activity of the ANO1-stable cell line was characterized with a FLIPR® Membrane Potential assay kit (Molecular devices, Sunnyvale, Calif.) according to the manufacture's instructions. ANO1-stable cell lines were seeded into poly-D-lysine coated 96-well plates (50,000 cells/each well). One day after the plating, the cells were incubated with 50 μl Hank's balanced salt solution (HBSS) containing membrane potential dye for 40 min at 37° C. To test the activity of ANO1 stable cell line, 100·μM ATP or 10·μM A23187 (Sigma, St Louis, Mo., USA) was added to each well for 20 sec after starting detection. The fluorescence intensity was measured by a fluorometric imaging plate reader (FlexStation™ II, MolecularDevices). Membrane potential dye was excited at 530 nm, and the intensity of fluorescence emitted at 565 nm was measured.\nTo determine if ANO1 is applicable for high-throughput screening (HTS) analysis, we constructed a stable cell line that constitutively expresses mANO1 (Reference example 7). The mANO1 stable cell line was grown in wells of a 96-well plate. mANO1-stably expressing HEK cells were incubated with a voltage sensor fluorescent dye (FLIPR®-membrane potential assay kit, Molecular Device) to detect change in membrane potential when ANO1 is activated. When ANO1 is activated, Cl^− would flux out the cell to depolarize the membrane, which makes the fluorescence dye fluoresce. After wash out the fluorescent dye, 100 μM ATP was applied. […] Fluorescent intensity was detected at excitation 530 nm and emission 565 nm by FlexStation 2 (Molecular device). […] F/F0: ratio of fluorescence intensity. Pretreatment of 2APB, a known blocker of IP3 receptor, blocked the ATP induced-membrane potential change in ANO1-stably expressing HEK cells (FIG. 13C)."}, "[2]": {"tested_on": "mANO1", "experiment": "Whole-cell current response to GPCR stimulation in HEK 293T cells co-transfected with mANO1 and a GPCR", "assay_type": "cell-based, mouse", "protocol": "HEK 293T cells were transfected with pEGFP-N1 (control) (1.0 μg) or pEGFP-N-1-mANO1 (0.8˜1.0 μg) and/or any one of the GPCR cDNAs (1.0 μg) obtained in Reference Example 2, using a FuGENE® HD transfection reagent (Roche Diagnostics, Penzberg, Germany). Transfected cells were maintained in DMEM supplemented with heat inactivated 10% fetal bovine serum (GIBCO BRL, Rockville, Md.) and penicillin-streptomycin at 37 in a 5% CO2 humidified atmosphere. One or two days after transfection, transfected cells were used for biochemical and electrophysiological experiments.\n(§1) To form gigaseals, individual cell surfaces were touched with a ˜3 Mohm Sylgard-coated glass pipette with gentle suction, and the junction potential was then adjusted to 0 mV. The membrane in contact with the pipette was then ruptured by suction to form a whole cell. The pipette solution contained 140 mM NMDG-Cl, 2 mM MgCl2, 10 mM HEPES, 2 mM ATP, and 0.3 mM GTP adjusted to pH 7.2, and the bath solution contained 140 mM NMDG-Cl, 2 mM MgCl2 and 10 mM HEPES (pH 7.2). For ion selectivity experiments, 140 mM NMDG-Cl was replaced with equimolar NaCl, NaL NaBr, NaNO3, NaF, or Na-gluconate in the bath solution. To determine current-voltage relationships, voltage ramps from −80 or −100 mV to +80 or +100 mV were delivered for 350 ms, or voltage-pulses from −100 mV to +100 mV were delivered for 400 ms to whole cells. When mANO1 was activated by 300 nM intracellular Ca^2+, voltage-pulses of 2500 ms were delivered. Whole-cell currents were amplified using an Axopatch 200B amplifier (Molecular Device, Sunnyvale, Calif.) and stored in a personal computer after digitization by a Digidata 1440 (Molecular Device). For single-channel current recordings, cell-attached or inside-out patches were formed from gigaseals. The pipette and control bath solution contained 140 mM NMDG-Cl, 2 mM MgCl2 and 10 mM HEPES (pH 7.2). […] To create amplitude histograms, pClamp software (version 6.0, Molecular Device) was used to analyze open and closed single-channel current events. The half-amplitude algorithm was used to determine an open event. The minimum duration of an open event was set at 0.1 ms.\nUnder physiological conditions CaCCs are known to be activated by GPCR stimulation. Endothelin-1 is a powerful vasoconstrictor that depolarizes vascular smooth muscle by activating CaCCs (Klockner, U. & Isenberg, G., Pflugers Arch. 418, 168-75 (1991); and Salter, K. J. & Kozlowski, R. Z., J Pharmacol Exp Ther. 279, 1053-62 (1996)). Thus, mANO1 and endothelin receptor subtype A (ETAR) were transfected into HEK 293T cells, along with GFP for visual identification of transfected cells, in accordance with the method of Reference Example 5. Whole cells were used to test the current response of mANO1 to ETAR stimulation. Pipette and bath solutions contained 140 mM N-methyl D-glucamine (NMDG)-Cl, which permitted Cl^− to be used as the main charge carrier. The pipette solution was Ca^2+ free and contained no EGTA. […] In contrast, endothelin-1 evoked currents were minimal in HEK cells transfected with ETAR or control (GFP-transfected only) cells. When mANO1 was transfected alone, 50 nM endothelin-1 evoked appreciable currents; presumably because of the presence of endogenous endothelin receptors in HEK cells."}, "[3]": {"molecular_target": "T1, mANO1 (Mus musculus, UniProt Q8BHY3, S527P)", "T1 sequence (Q8BHY3 1-960 S527P)": "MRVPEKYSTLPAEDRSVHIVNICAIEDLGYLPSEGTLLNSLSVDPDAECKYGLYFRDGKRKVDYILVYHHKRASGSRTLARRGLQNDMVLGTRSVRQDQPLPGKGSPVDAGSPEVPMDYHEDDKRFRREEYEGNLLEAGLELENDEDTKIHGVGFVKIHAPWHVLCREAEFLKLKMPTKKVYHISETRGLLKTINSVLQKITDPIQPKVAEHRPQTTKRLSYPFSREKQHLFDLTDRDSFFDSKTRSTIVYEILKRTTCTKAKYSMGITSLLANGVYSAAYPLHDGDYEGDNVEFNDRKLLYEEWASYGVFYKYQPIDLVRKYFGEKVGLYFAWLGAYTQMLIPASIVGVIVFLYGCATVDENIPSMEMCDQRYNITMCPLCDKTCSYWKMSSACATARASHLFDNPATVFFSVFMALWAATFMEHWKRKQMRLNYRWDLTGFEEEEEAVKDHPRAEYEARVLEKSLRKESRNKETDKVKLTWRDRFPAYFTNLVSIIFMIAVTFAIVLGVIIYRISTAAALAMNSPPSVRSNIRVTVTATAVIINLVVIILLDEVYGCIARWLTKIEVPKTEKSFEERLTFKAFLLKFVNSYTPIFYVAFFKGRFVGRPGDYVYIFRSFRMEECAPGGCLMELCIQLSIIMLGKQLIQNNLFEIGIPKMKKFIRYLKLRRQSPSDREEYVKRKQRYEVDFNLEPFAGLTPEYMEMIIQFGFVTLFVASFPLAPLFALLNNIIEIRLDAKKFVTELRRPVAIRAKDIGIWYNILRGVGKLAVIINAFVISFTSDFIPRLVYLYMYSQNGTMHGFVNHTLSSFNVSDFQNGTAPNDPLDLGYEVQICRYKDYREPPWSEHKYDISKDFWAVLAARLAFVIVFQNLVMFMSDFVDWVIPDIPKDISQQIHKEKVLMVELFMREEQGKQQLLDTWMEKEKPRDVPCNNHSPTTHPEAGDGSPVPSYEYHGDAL", "experiment": "Ca2+ activation of macroscopic currents in inside-out patches from ANO1/ETAR-HEK cells", "assay_type": "biochemical", "set-up": "expressed in transfected cells", "settings": "for EC50: inside-out patches", "protocol": "A. Macroscopic current responses to repeated applications of Ca^2+ in various concentrations to the bath of inside-out patches isolated from mANO1-ETAR/HEK cells at holding potentials of −60 or +60 mV. Pipette and bath solution contained 140 mM NMDG-Cl.\nB. Dose-response relationship of mANO1 activation by Ca^2+. Current responses were normalized versus those observed at 10 μM (−60 mV, n=8) or 3 μM Ca^2+ (+60 mV, n=8). Data points were fitted to the Hill's equation. (Error bars=Mean±S.E.M)\nas §1\nCa^2+ in various concentrations applied to the bath (intracellular side) evoked macroscopic […] currents in a dose-dependent manner (Ehold=−60 mV) (FIG. 7A). […] The threshold concentration of Ca^2+ reached about 0.3 μM at −60 mV holding potential (FIG. 7B). Remarkably, ANO1 activation by Ca^2+ was voltage-dependent, which is also characteristic of endogenous CaCCs (Nilius, B. et al., Cell Calcium 22, 53-63 (1997), Kuruma, A. & Hartzell, H. C., J Gen Physiol 115, 59-80 (2000), Evans, M. G. & Marty, A., J Physiol 378, 437-60 (1986)). At a depolarized membrane potential (+60 mV), ANO1 was more sensitive to Ca^2+ and the concentration-response curve shifted to the left, resulting in an EC50 of 0.4 μM (FIG. 7B). Hill's coefficients of the concentration-response curves were 2.0 and 2.4 at −60 and +60 mV, respectively."}, "[4]": {"tested_on": "hANO1", "experiment": "Current recording in hANO1/ETAR-HEK cells", "assay_type": "cell-based, human", "settings": "50 nM endothelin-1", "from_the_text": "The hANO1 (human TMEM16A; NM_018043, GI: 40354209) was cloned from human trachea total RNAs (Clontech, Palo Alto, Calif.) by PCR method using following primers; forward primer 5′-CTCGAGGCCACCATGAGGGTCAACGAGAAGTACTC-3′ (SEQ ID NO: 8) and reverse primer 5′-GGTACCCTACAGGACGCCCCCGTGGTAG-3′ (SEQ ID NO: 9). The PCR product was cut with XhoI and KpnI, and then inserted into XhoI/KpnI site of pSDTF or pEGFP-N1.\nTo form gigaseals, individual cell surfaces were touched with a ˜3 Mohm Sylgard-coated glass pipette with gentle suction, and the junction potential was then adjusted to 0 mV. The membrane in contact with the pipette was then ruptured by suction to form a whole cell. The pipette solution contained 140 mM NMDG-Cl, 2 mM MgCl2, 10 mM HEPES, 2 mM ATP, and 0.3 mM GTP adjusted to pH 7.2, and the bath solution contained 140 mM NMDG-Cl, 2 mM MgCl2 and 10 mM HEPES (pH 7.2). For ion selectivity experiments, 140 mM NMDG-Cl was replaced with equimolar NaCl, NaL NaBr, NaNO3, NaF, or Na-gluconate in the bath solution. To determine current-voltage relationships, voltage ramps from −80 or −100 mV to +80 or +100 mV were delivered for 350 ms, or voltage-pulses from −100 mV to +100 mV were delivered for 400 ms to whole cells. When mANO1 was activated by 300 nM intracellular Ca^2+, voltage-pulses of 2500 ms were delivered. […]"}}, "note": "Like-named read-outs stand apart in the source and are kept apart here."}
{"compound": "NCCOB(c1ccccc1)c1ccccc1", "note": "[2APB]", "values": [{"measurement": "block of ATP induced-membrane potential change", "setting": "[1]; pretreatment of 2APB, ANO1-stably expressing HEK cells", "result": "blocked"}]}
{"compound": "CNc1ccc2oc(C[C@H]3O[C@@]4(CC[C@H]3C)O[C@H]([C@H](C)C(=O)c3ccc[nH]3)[C@H](C)C[C@H]4C)nc2c1C(=O)O", "note": "[A23187]", "values": [{"measurement": "membrane potential change detected by fluorescent intensity", "setting": "[1]", "result": "evoked membrane potential change"}]}
{"compound": "Nc1ncnc2c1ncn2[C@@H]1O[C@H](COP(=O)(O)OP(=O)(O)OP(=O)(O)O)[C@@H](O)[C@H]1O", "note": "[ATP]", "values": [{"measurement": "inward currents activated by ATP", "setting": "[2]; ATP 100 μM, mANO1 co-transfected with P2Y2R in HEK 293T cells, Ehold −60 mV", "result": "Large inward currents"}, {"measurement": "membrane potential change detected by fluorescent intensity", "setting": "[1]", "result": "evoked robust change in membrane potentials"}]}
{"compound": "[Ca+2]", "note": "[Ca^2+]", "values": [{"measurement": "Hill's coefficient of concentration-response curve", "setting": "[3]; +60 mV", "result": 2.4}, {"measurement": "EC50", "setting": "[3]; depolarized membrane potential +60 mV, read-out: EC50 for ANO1 activation", "result": 400, "unit": "nM"}, {"measurement": "EC50", "setting": "[3]; holding potential −60 mV, read-out: half-maximal concentration (EC50) for ANO1 activation", "result": 2600, "unit": "nM"}, {"measurement": "Hill's coefficient of concentration-response curve", "setting": "[3]; −60 mV", "result": 2.0}, {"measurement": "threshold concentration for ANO1 activation", "setting": "[3]; −60 mV holding potential", "result": "about 0.3 μM"}]}
{"compound": "endothelin-1 (CSCSSLMDKECVYFCHLDIIW) [powerful vasoconstrictor; ligand of endothelin receptor subtype A (ETAR)]", "values": [{"measurement": "endothelin-1 evoked inward currents", "setting": "[2]; 50 nM endothelin-1, mANO1-ETAR/HEK cells, whole cell, membrane potential −60 mV", "result": "evoked robust inward currents"}, {"measurement": "second responses relative to first responses (tachyphylaxis)", "setting": "[2]; 50 nM endothelin-1 applied twice with a 5 min interval, ANO1/ETAR-HEK cells, n=12, no blocker", "result": "87.1±11.4", "unit": "%"}, {"measurement": "endothelin-1 evoked Cl− currents", "setting": "[4]", "result": "evoked large Cl^− currents"}]}
